In US9718769B2, “Pulverulent compositions of a complex between an acid and a metal and method of preparation thereof” (INNOV'IA 3I, priority 2012, dated 2017):
Entries after “also recorded” stand apart in the source; their conditions may differ. Marks after values point to notes of the source that are not given here.

Key:
[1] = Crystallinity by DSC in isothermal mode and X-ray diffraction; format: physicochemical; details: deduced from DSC (R) or X-ray diffraction (T7)
Experimental: Samples T7 and R were analysed by X-ray diffraction using a Bruker APEX-II Quasar diffractometer equipped with a molybdenum microsource (λ=0.71073 Å). Each sample was ground beforehand in a mortar for two minutes. Each of the powders thus obtained is then transferred to a capillary with diameter of 0.5 mm that is transparent to X-rays, and is then mounted on a goniometer. The recording characteristics are perfectly identical for each sample, namely: […]

[2] = tested on: laying hens; test: Feeding laying hens: laying performance and egg parameters; format: in vivo; details: for Albumen / Average weight of the eggs / Consumption index / Daily food intake / Laying frequency / Weight of eggs / Yolk / Final body weight: 0.13% methionine equivalent in feed, mean; for Final body weight: after 6 weeks
Experimental: Eighty laying hens aged 45 weeks were housed for 6 weeks and were distributed at random into […] equal groups (20 per group). Each hen was kept in an individual cage at a temperature of (20±2° C.) with controlled lighting conditions. All the hens were offered a similar basic diet, with or without addition of DLM, of HMTBA-Ca or of a 50/50 mixture (HMTBA-Ca: […] All the laying hens had free access to drinking water and were fed throughout the 6-week period of the experiment.

[3] = tested on: growing chickens; test: Feeding growing chickens: growth performance; format: in vivo; details: 46-day-old chickens, 0.3% in feed (0.24% finishing phase); mean ± standard deviation
Experimental: (§1) One hundred and forty-seven commercial chickens (1 day old, 48 g) were housed from day 1 to day 46, including the starting phase (days 1-21) and the finishing phase (days 22-46). All the chickens were randomly distributed in seven equal groups (21 per group), and each group was made up of three subgroups of 7 birds each. Each subgroup was kept in an enclosure at a temperature of (28±2° C.), with controlled lighting conditions. All the chickens were offered a similar basic diet, with or without addition of DLM, HMTBA or HMTBA-Ca at levels of 0 (control) or 0.3% in the starting phase and 0 or 0.24% in the finishing phase (Table 4). All the chickens had free access to food and drinking water throughout the test period of 46 days. The weight of the chickens was measured every week and food intake was monitored throughout the experiment.
(§2) At the end of the experiment, the birds were weighed individually and sacrificed. The abdominal fat, the muscles of the thigh and of the breast were taken, lyophilized and weighed.

[4] = tested on: growing chickens; test: Feeding growing chickens: composition of the carcass; format: in vivo; details: for DB, weight of the muscles of the breast / DL, weight of the muscles of the thigh / PDAT, ratio of the weight of the abdominal fat to that of the eviscerated chicken / PDB, ratio of the weight of the muscles of the breast (without bone or skin) to that of the eviscerated chicken / PDL, ratio of the weight of the muscles of the thigh (without bone or skin) to that of the eviscerated chicken: 46-day chickens, mean ± standard deviation
Experimental: as §1, §2

[5] = tested on: growing chickens; test: Feeding growing chickens: apparent digestibility of nutrients; format: in vivo; details: 0.3% in feed; for Apparent digestibility of ash / Apparent digestibility of crude fats / Apparent digestibility of crude proteins / Apparent digestibility of dry matter: 46-day chickens, mean ± standard deviation for 10 chickens
Experimental: as §1
The excrement of the chickens was collected for the 3 days following the 42nd day of the experiment, were frozen and stored (at −20° C.) for later chemical analyses.

SMILES | Albumen ([2]; 6 weeks) [g/egg] | Average weight of the eggs ([2]; 6 weeks) [g/egg] | Consumption index ([2]; 6 weeks) [g feed/g egg] | Daily food intake ([2]; 6 weeks) [g/day] | Laying frequency ([2]; 6 weeks) [%] | Weight of eggs ([2]; 6 weeks) [g/day] | Yolk ([2]; 6 weeks) [g/egg] | Final body weight [2] [g/hen] | Feeding:gain [3] | Final body weight [3] | Food intake [3] [g/chicken/day] | Gain in body weight [3] | DB, weight of the muscles of the breast ([4]; 0.3% in feed) | DL, weight of the muscles of the thigh ([4]; 0.3% in feed) | PDAT, ratio of the weight of the abdominal fat to that of the eviscerated chicken ([4]; 0.3% in feed) | PDB, ratio of the weight of the muscles of the breast (without bone or skin) to that of the eviscerated chicken ([4]; 0.3% in feed) | PDL, ratio of the weight of the muscles of the thigh (without bone or skin) to that of the eviscerated chicken ([4]; 0.3% in feed) | Apparent digestibility of ash [5] | Apparent digestibility of crude fats [5] | Apparent digestibility of crude proteins [5] | also measured
CSCCC(O)C(=O)[O-].CSCCC(O)C(=O)[O-].[Ca+2] (stereo not drawn) [R, (HMTBA)2Ca] | – | – | – | – | – | – | – | – | – | – | – | – | – | – | – | – | – | – | – | – | Degree of crystallinity [1]: 100%
CSCCC(O)C(=O)[O-].CSCCC(O)C(=O)[O-].[Ca+2] (stereo not drawn) [HMTBA-Ca, (HMTBA)2Ca] | 39.53 | 64.9 | 1.82 | 112.7 | 95 | 62.0 | 16.47 | 1897.2 | 1.91 ± 0.12 g:g | 3.38 ± 0.28^ab kg/chicken | 144.53 ± 20.93 | 75.08 ± 6.18^ab g/chicken/day | 617.54 ± 45.21^bc g | 588.64 ± 38.07^ab g | 2.49 ± 0.59^b % | 22.98 ± 3.00^b % | 22.06 ± 1.64^c % | 44.62 ± 0.89^a % | 90.28 ± 0.20^c % | 66.44 ± 0.37^cd % | Albumen content of the eggs, more relative to the eggs of hens fed with DLM ([2]; 6 weeks, relative to DLM): 3%; Average weight of the eggs, higher relative to that obtained with DLM ([2]; 6 weeks, relative to DLM): 2.3%; Percentage of abdominal fat (in words) ([4]; chickens, 0.3% in feed, 46 days): increase in the percentage of abdominal fat; Weight of the muscles of the thigh and breast relative to DLM / the other groups (in words) ([4]; chickens, 46 days): significantly higher; also recorded: highest weight of muscles of the thigh and breast; Apparent digestibility of dry matter [5]: 81.80 ± 0.32^d %; Digestibility of the nutrients relative to the other two forms of methionine (in words) ([5]; chickens, 46 days): far better digestibility
CSCCC(N)C(=O)O (racemic) [DLM, DL-methionine, reference compound] | 38.38 | 63.4 | 1.87 | 112.4 | 95 | 60.3 | 16.38 | 1834.9 | 2.01 ± 0.10 g:g | 3.17 ± 0.15^ab kg/chicken | 141.51 ± 0.24 | 70.47 ± 3.37^ab g/chicken/day | 596.88 ± 56.68^abc g | 586.03 ± 23.43^ab g | 1.88 ± 0.43^a % | 22.77 ± 1.44^b % | 20.12 ± 0.22^a % | 56.02 ± 1.01^b % | 86.15 ± 0.93% | 63.70 ± 2.85^cd % | Apparent digestibility of dry matter [5]: 78.22 ± 1.70^c %
